Measured values: PubChem BioAssay (NCI)
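Step 1: Grow cells in 96-well plates. Step 2: Expose to compound for 48 hours at 5 concentrations. Step 3: Interpolate endpoints linearly; if unreached, use highest concentration. GI50 is the concentration that inhibits growth by half. The concentration for full growth arrest is given as TGI.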

What was measured:
Test in all cases: DTP human tumour cell line panel, 48 h
[1] = system: SK-MEL-5 melanoma
[2] = system: 786-0 renal
[3] = system: SK-MEL-28 melanoma
[4] = system: OVCAR-3 ovarian
[5] = system: A498 renal
[6] = system: SNB-75 CNS
[7] = system: ACHN renal
[8] = system: IGROV1 ovarian
[9] = system: RPMI-8226 leukemia
[10] = system: DU-145 prostate

| Compound | TGI [1] | TGI [2] | TGI [3] | TGI [4] | TGI [5] | TGI [6] | TGI [7] | TGI [8] | TGI [9] | TGI [10] | GI50 [1] | GI50 [2] | GI50 [3] | GI50 [4] | GI50 [5] | GI50 [6] | GI50 [7] | GI50 [8] | GI50 [9] | GI50 [10] |
| --- | --- | --- | --- | --- | --- | --- | --- | --- | --- | --- | --- | --- | --- | --- | --- | --- | --- | --- | --- | --- |
| O=C1C2C3C=CC(C2C(=O)N1CN1CCOCC1)C1C2C(=O)N(CN4CCOCC4)C(=O)C2C31 (stereo not drawn) | > 58 µM | > 60.9 µM | > 66 µM | > 77.8 µM | > 100 µM | > 73.2 µM | > 91.5 µM | > 94.6 µM | > 71.9 µM | > 100 µM |  |  |  |  |  |  |  |  |  |  |
| Cc1nc2ccccc2c(/C=C/c2ccc(F)cc2)c1C(=O)/C=C/c1ccccc1 | 5.12 µM | 4.36 µM | 5.67 µM | 3.12 µM | 4.62 µM | > 100 µM | 4.65 µM | 6.15 µM | 5.95 µM | 6.21 µM | 2.11 µM | 2.03 µM | 2.36 µM | 1.57 µM | 2.22 µM | 8.15 µM | 1.98 µM | 1.71 µM | 1.87 µM | 2.34 µM |
| CC(C)OC(=O)NNc1c(Cl)cc(Cl)cc1Cl | 60.5 µM | > 100 µM | > 100 µM | > 100 µM | > 100 µM | > 100 µM | > 100 µM | > 100 µM | > 100 µM | > 100 µM |  |  |  |  |  |  |  |  |  |  |
| Nc1ccccc1SC(CC(=O)c1ccccc1)c1c(Cl)cccc1Cl (stereo not drawn) | 21.2 µM | 23.2 µM | 23.9 µM | 12 µM | 24 µM | 30.1 µM | 5.6 µM | 8.62 µM | 5.35 µM | 18.3 µM | 9.17 µM | 9.73 µM | 11.6 µM | 3.4 µM | 11.2 µM | 10.8 µM | 2.16 µM | 2.74 µM | 1.9 µM | 5.8 µM |
| CC12CC(Br)(Br)C(=O)C3C1CCCC32 | 17.5 µM | 9.32 µM | 6.61 µM | 7.08 µM | 31.1 µM | 22.9 µM | 15.5 µM | 27.2 µM | 9.74 µM | 25.1 µM |  |  |  |  |  |  |  |  |  |  |
| COC(=O)c1cc2c3cc(Cl)ccc3[nH]c2c2ncccc12 | > 100 µM | > 100 µM | > 100 µM | > 100 µM | > 100 µM | > 100 µM | > 100 µM | > 100 µM | > 100 µM | > 100 µM | > 100 µM | > 100 µM | > 100 µM | > 100 µM | > 100 µM | > 100 µM | > 100 µM | 77.4 µM | > 100 µM | > 100 µM |
| COc1cc(/C=C/C(=O)c2cccc(-n3cc(-c4ccccc4)[nH]c3=O)c2)ccc1O | 6.65 µM | 7.93 µM | 3.07 µM | 6.06 µM | 3.87 µM | 12.3 µM | 16.3 µM | 7.28 µM | 4.21 µM | 5.37 µM | 2.48 µM | 2.37 µM | 0.722 µM | 2.33 µM | 1.68 µM | 3.21 µM | 3.46 µM | 2.22 µM | 1.66 µM | 2.32 µM |
| O=NN(CC(=O)NNc1ccccc1)CC(=O)NNc1ccccc1 | > 100 µM | > 100 µM | > 100 µM | > 100 µM | > 100 µM | > 100 µM | > 100 µM | > 100 µM | > 100 µM | > 100 µM | 8.67 µM | 7.85 µM |  | 11.3 µM | > 100 µM | > 45.4 µM |  | > 64 µM | 12.4 µM | > 100 µM |
| Nc1ncnc2occ(-c3ccc(NC(=O)Nc4cccc(C(F)(F)F)c4)cc3)c12 | 6.21 µM | 10 µM | 12.7 µM | 9.72 µM | 3.22 µM | 9.69 µM | 12.1 µM | 10.2 µM | 15.3 µM | 16.1 µM | 3.06 µM | 4.46 µM | 4.89 µM | 4.79 µM | 0.422 µM | 3.77 µM | 1.4 µM | 2.02 µM | 4.86 µM | 4.82 µM |
| O=C1C=CC(=O)N1c1ccc2ccccc2c1 | 30.4 µM | 31.6 µM | 34 µM | 8.75 µM | 27.3 µM | 38.4 µM | 15.4 µM | 52 µM | 4.97 µM | 25.6 µM | 16.4 µM | 17.2 µM | 16.8 µM | 3.23 µM | 12.7 µM | 16.6 µM | 4.66 µM | 16.6 µM | 2 µM | 12.3 µM |
| CN(C)Cc1c[nH]c2nc[nH]c(=O)c12 | > 100 µM | 76.4 µM | > 100 µM | > 100 µM | > 100 µM | > 100 µM | > 100 µM | > 100 µM | 59.4 µM | 64.8 µM |  |  |  |  |  |  |  |  |  |  |
| O=C(NCCc1nccs1)c1cnc2c(S)cccc2c1 | 16 µM | 36 µM | > 100 µM | 9.21 µM | 16.7 µM | 17.6 µM | 14.1 µM | 24.7 µM | > 100 µM | 13.7 µM | 3.2 µM | 5.33 µM | 3.5 µM | 2.47 µM | 4.59 µM | 2.78 µM | 3.36 µM | 1.96 µM | 4.15 µM | 3.27 µM |
